Assays:
[1] = rats; cited from earlier work
[2] = Biodistribution in rats with renal pedicle ligation; type: in vivo, rats (Sprague–Dawley)
[3] = Biodistribution in normal rats; type: in vivo, rats (Sprague–Dawley); conditions: mean ± SD; for Percent injected dose in blood: i.v. tail vein
[4] = Sprague-Dawley rats; cited from earlier work
[5] = rats with renal pedicle ligation, 60 min post-injection, mean ± SD, n=5

O=C(O)CNC(=O)c1ccc([18F])cc1 [^18F-PFH, ^18F-p-fluorohippurate]
Route of elimination [1]: rapidly and exclusively cleared by the kidneys

O=C(O)CNC(=O)c1ccccc1[131I] [^131I-OIH, ^131I-o-iodohippurate]
Percent injected dose remaining in the spleen, heart and lung ([2]; rats with ligated renal pedicles, 60 min): less than 1%
Percent injected dose in blood [2, 5]: 15.1 ± 0.9 % ID
Percent injected dose in bowel (intestines and stomach) [2, 5]: 7.6 ± 1.1 % ID
Percent injected dose in kidney [2, 5]: 0.5 ± 0.2 % ID
Percent injected dose in liver [2, 5]: 7.1 ± 0.6 % ID
Percent injected dose in blood ([3]; 10 min post-injection, n=7): 5.1 ± 0.5 % ID
Percent injected dose in bowel (intestines and stomach) ([3]; 10 min post-injection, n=7): 1.7 ± 0.5 % ID
Percent injected dose in kidney ([3]; 10 min post-injection, n=7): 5.3 ± 1.2 % ID
Percent injected dose in liver ([3]; 10 min post-injection, n=7): 3.3 ± 0.2 % ID
Percent injected dose in urine ([3]; 10 min post-injection, n=7): 50.8 ± 5.2 % ID
Percent injected dose in blood ([3]; 60 min post-injection, n=5): 0.8 ± 0.1 % ID
Percent injected dose in bowel (intestines and stomach) ([3]; 60 min post-injection, n=5): 1.8 ± 0.3 % ID
Percent injected dose in kidney ([3]; 60 min post-injection, n=5): 0.7 ± 0.4 % ID
Percent injected dose in liver ([3]; 60 min post-injection, n=5): 0.6 ± 0.2 % ID
Percent injected dose in urine ([3]; 60 min post-injection, n=5): 85.4 ± 3.1 % ID

N#Cc1cc(C(=O)NCC(=O)O)ccc1[18F] [^18F-CNPFH, ^18F-m-cyano-p-fluorohippurate]
Route of elimination [1]: eliminated by both renal and hepatobiliary pathways

^125I-iothamalate
Clearance as percentage of the clearance of ^131I-OIH [4]: 40%

Reference: paper PMC3964607 (Nuclear medicine and biology, 2013)
